The results in this text go back to patent US20230059022A1, “PRUSSIAN BLUE ZnO CARBON NANOTUBE COMPOSITE FOR MEASURING HYDROGEN PEROXIDE IN CANCER CELLS” (Middle Tennessee State University, priority 2020, published 2023).

Where “and” joins values, the source holds several entries; their conditions need not be identical. Equal entries are not always repeated.

Format in all cases: cell-based
Test [1] has as its system BT20 cancer cells. Briefly: ELISA (Amplex Red hydrogen peroxide release assay) of BT20 cells. As to conditions: single replicate wells. On the procedure: (§1) BT20 and 4T1 cells were purchased from American Type Culture Collection (ATCC). Both cell lines were maintained in RPMI-1640 medium (Sigma-Aldrich) with 10% Fetal Bovine Serum (FBS) (Gibco) at 37° C. with 5% CO2. The medium was renewed every two days. Well-grown BT20 cells in logarithmic phase were digested by 0.25% (w/v) Trypsin (Fisher Scientific) from the original culture flask and mixed well before being seeded on a 96-well cell culture plate (Denville Scientific) with a density of 5×10^4 cells/mL and incubated with the same full medium at 37° C. with 5% CO2 for 24 h. Cells were then treated with 100 μL of 50 μM doxonibicin (Dox) (Sigma-Aldrich). Cells treated with 100 μL of vehicle (RPMI-1640 medium) only served as a control. The Dox group and control group each had eight replicate wells. After 24 h of incubation, 50 μL of the medium was collected from each well and proceeded for hydrogen peroxide determination.
The hydrogen peroxide release assay was carried on using Amplex™ Red Hydrogen Peroxide/Peroxidase Assay Kit (Invitrogen) according to the instruction. […] After incubation at room temperature in the dark for 30 min, the absorbance of each well at 560 nm of was measured with a CLARIOstar™ microplate reader (BMG Labtech). The concentration of hydrogen peroxide in the sample was calculated according to the standard curve. […]

Test [2] concerns 4T1 cancer cells. Briefly: SAM CA (chronoamperometry with standard addition) of hydrogen peroxide release from 4T1 cells. Here is the method: as §1, with “Cells treated with 100 μL of vehicle (RPMI-1640 medium) only served as a control. The Dox group and control group each had eight replicate wells. After 24 h of incubation, 50 μL of the medium was collected from each well and proceeded for hydrogen peroxide determination.” left out
(§2) Electrochemical activity of the PB/ZnO/COOH-MWNTs was studied using cyclic voltammetry (CV) and chronoamperometry (CA) using AfterMath™ software ver 1.2.5658 and a WaveNano™ potentiostat (Pine Research Instrument Co., Raleigh, N.C., USA). […] The concentrations of hydrogen peroxide in BT20 cancer cells were measured chronoamperometrically, employing the standard addition method (CA SAM). Samples were measured by standard additions of hydrogen peroxide in increasing order to create the calibration curve needed to determine the unknown hydrogen peroxide concentration in the cancer cells. BT20 and 4T1 cancer cells were cultured and the concentration of hydrogen peroxide in the cancer cells analyzed using this sensor. […]

The test system of test [3] is 4T1 cancer cells. Briefly: ELISA (Amplex Red hydrogen peroxide release assay) of 4T1 cells.
Test [4] concerns BT20 cancer cells. Briefly: SAM CA (chronoamperometry with standard addition) of hydrogen peroxide release from BT20 cells. On the procedure:
as §1, with “Cells treated with 100 μL of vehicle (RPMI-1640 medium) only served as a control. The Dox group and control group each had eight replicate wells. After 24 h of incubation, 50 μL of the medium was collected from each well and proceeded for hydrogen peroxide determination.” left out
as §2

Consider `COc1cccc2c1C(=O)c1c(O)c3c(c(O)c1C2=O)C[C@@](O)(C(=O)CO)C[C@@H]3O[C@H]1C[C@H](N)[C@H](O)[C@H](C)O1` [Dox, doxonibicin], for which the “H2O2 from Dox-treated BT20 cancer cells, ELISA results” value with BT20 cancer cells [1] is 5.0152 μM and 5.3182 μM (2×) and 5.6212 μM (2×) and 6.0758 μM and 6.9848 μM and 4.4091 μM. Moreover, in the test with 4T1 cancer cells [2] (4T1 cells, Dox treated, single replicates, SAM CA), the “H2O2 from Dox treated 4T1 cancer cells, SAM CA” value was 14 µM and 15.6 µM and 16 µM. The “concentration of hydrogen peroxide released in Dox-treated 4T1 cancer cells (mean)” value in the test on 4T1 cancer cells [2] (Dox-treated 4T1 cells, CA SAM, n=3, p=0.0182 vs untreated) stood at 15.2 µM. For the same compound, the “H2O2 from Dox treated 4T1 cancer cells, ELISA results” value in the test on 4T1 cancer cells [3] (Dox treated, single replicate wells) was 1.9605 µM and 2.0921 µM and 2.4868 µM and 2.75 µM and 2.8816 µM and 2.6184 µM and 3.0132 µM and 1.8289 µM. Moreover, the “difference in hydrogen peroxide between Dox-treated and untreated 4T1 cells by ELISA” value in the test with 4T1 cancer cells [3] (p=0.8932) is “no statistical difference”. In addition, the “hydrogen peroxide concentration in Dox-treated BT20 cancer cells (mean)” value in the test on BT20 cancer cells [4] (48 h Dox-treated BT20 cells, CA SAM, n=6) was determined as 16.0 ± 1.4 µM. In addition, the “H2O2 from Dox-treated BT20 cancer cells, SAM CA” value with BT20 cancer cells [4] (BT20 cells, Dox treated, single replicates, SAM CA) is 15.1 μM and 15.88 μM (2×) and 17.47 μM (2×) and 14.42 μM.
